Measurements taken from ChEMBL document CHEMBL5365401, “Discovery of 5-((1H-indazol-3-yl) methylene)-2-thioxoimidazolidin-4-one derivatives as a new class of AHR agonists with anti-psoriasis activity in a mouse model” (Bioorg Med Chem Lett, 2023).
Activity calls are given as the source filed them. The rule behind the calls is not given here.

molecular target: T1, Aryl hydrocarbon receptor (Homo sapiens, UniProt P35869); assay: Agonist activity at AHR in human HepG2-Lucia AhR cells stably transfected with DRE by luciferase reporter assay; format: cell-based; settings: not given
T1 sequence (P35869 whole entry): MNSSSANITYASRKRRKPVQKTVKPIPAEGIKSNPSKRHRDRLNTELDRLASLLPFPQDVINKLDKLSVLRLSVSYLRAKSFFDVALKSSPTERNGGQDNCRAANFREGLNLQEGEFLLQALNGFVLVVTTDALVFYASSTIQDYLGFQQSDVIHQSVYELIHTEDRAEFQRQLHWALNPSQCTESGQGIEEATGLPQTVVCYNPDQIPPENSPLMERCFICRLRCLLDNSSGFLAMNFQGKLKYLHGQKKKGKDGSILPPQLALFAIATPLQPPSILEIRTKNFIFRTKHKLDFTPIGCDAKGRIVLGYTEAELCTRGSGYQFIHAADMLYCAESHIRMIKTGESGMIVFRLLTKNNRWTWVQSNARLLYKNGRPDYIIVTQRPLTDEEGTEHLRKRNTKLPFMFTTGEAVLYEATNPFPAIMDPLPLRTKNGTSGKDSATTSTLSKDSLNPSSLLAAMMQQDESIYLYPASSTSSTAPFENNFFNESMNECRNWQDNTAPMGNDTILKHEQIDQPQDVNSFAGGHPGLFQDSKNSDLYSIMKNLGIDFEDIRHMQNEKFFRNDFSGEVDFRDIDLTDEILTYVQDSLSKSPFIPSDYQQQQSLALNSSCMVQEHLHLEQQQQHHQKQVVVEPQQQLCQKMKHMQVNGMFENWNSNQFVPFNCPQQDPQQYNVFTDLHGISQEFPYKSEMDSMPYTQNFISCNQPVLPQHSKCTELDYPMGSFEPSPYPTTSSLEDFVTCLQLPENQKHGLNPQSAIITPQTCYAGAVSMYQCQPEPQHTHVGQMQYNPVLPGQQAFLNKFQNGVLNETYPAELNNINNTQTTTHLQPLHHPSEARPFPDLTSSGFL

Row | EC50 | SMILES
1 | 49 nM | CN1C(=O)/C(=C/c2n[nH]c3ccccc23)NC1=S
2 | > 10000 nM | Cc1[nH]c2ccccc2c1/C=C1\NC(=S)N(C)C1=O
3 | 143 nM | CN1C(=O)/C(=C/c2c[nH]c3ccccc23)NC1=S
4 | > 10000 nM | CN1C(=O)/C(=C/c2cncnc2)NC1=S
5 | 1800 nM | CN1C(=O)/C(=C/c2csc3ccccc23)NC1=S

Further lines, the compound ahead of its results:

Row | SMILES | EC50
6 | COc1cccc(OC)c1C(=O)OCc1cc(=O)n2cc(Br)ccc2n1 | 5900 nM
7 | CN1C(=S)NC(=O)/C1=C/c1n[nH]c2ccccc12 | 2500 nM
8 | Cc1cc(-c2nnc3sc(-c4ccccc4Br)nn23)[nH]n1 | 2800 nM
9 | O=C1NC(=S)N/C1=C\c1c[nH]c2ccccc12 | > 10000 nM
10 | CN1C(=O)C(Cc2c[nH]c3ccccc23)NC1=S (stereo not given) [NECROSTATIN] | > 10000 nM
11 | C#CCN1C(=O)/C(=C/c2n[nH]c3ccccc23)NC1=S | 15 nM
12 | CC#CCN1C(=O)/C(=C/c2n[nH]c3ccccc23)NC1=S | 528 nM
13 | Cc1ccc([N+](=O)[O-])c2c1NC(c1ccc(Br)cc1)=NO2 | 3400 nM
14 | O=C1NC(=O)/C(=C/c2c[nH]c3ccccc23)N1 | > 10000 nM
15 | CCN1C(=O)/C(=C/c2n[nH]c3ccccc23)NC1=S | 219 nM
16 | CC(C)N1C(=O)/C(=C/c2c[nH]c3ccccc23)NC1=S | 10000 nM
17 | CCN1C(=O)/C(=C\c2c[nH]c3ccccc23)NC1=S | 1800 nM

molecular target: T1, Aryl hydrocarbon receptor; assay: Agonist activity at AHR in human HepG2 cells stably transfected with DRE assessed as increase in CYP1A1 mRNA expression by qPCR assay; format: cell-based; settings: dose 0.1-10 µM

Row | Activity | SMILES
18 | Dose-Dependent Effect | C#CCN1C(=O)/C(=C/c2n[nH]c3ccccc23)NC1=S

molecular target: T1, Aryl hydrocarbon receptor; assay: Agonist activity at AHR in human HepG2 cells stably transfected with DRE assessed as increase in AHR nuclear translocation at 1 to 10 uM by Western blot analysis; format: cell-based; settings: dose 1-10 µM

Row | Activity | SMILES
19 | Dose-Dependent Effect | C#CCN1C(=O)/C(=C/c2n[nH]c3ccccc23)NC1=S

system: Mus musculus; assay: Anti-psoriatic activity in imiquimod-induced BALB/c mouse model assessed as decrease in psoriasis-like skin lesion at 1 % administered topically; format: functional, organism-based; settings: Zone of skin, route top

Row | SMILES | Activity
20 | C#CCN1C(=O)/C(=C/c2n[nH]c3ccccc23)NC1=S | Active
